In this data set the test system is GRN mRNA. Nature of the data set: GRN mRNA qPCR in SK-N-AS cells transfected with ASOs. Type of data set: cell-based, human. The note with it: SK-N-AS; for hGRN mRNA FC / 120 nM FC (GRN mRNA): 120 nM. As for the experimental part:
The best ASOs based on increased GRN mRNA fold-change were selected for further characterization in dose titration studies. Briefly, human neuroblastoma SK-N-AS cells were transfected with 20 to 160 nM of ASOs CO-3423, CO-3431, CO-3463, and CO-3503. A steric non-targeting control ASO (sNTC) was used as a control. Cells were collected for mRNA analysis after 48 hours and GRN mRNA quantified by qPCR. Housekeeping genes for normalization were GAPDH and PPIA, and mRNA fold change (FC) was normalized to sNTC.
36 additional ASOs were designed with different modifications and base walking around selected ASOs. The effect of increasing doses of these ASOs was assessed in the human neuroblastoma cell line SK-N-AS following transfection. Relative GRN mRNA levels in SK-N-AS cells after treatment was assessed 48-hours post-transfection, and data from exemplary ASOs is shown in FIGS. 5A and 5B.
Additional chemical modifications, including LNA, modifications were made to CO-3423. SK-N-AS cells were transfected with increasing concentrations of the LNA/PS modified ASOs and GRN mRNA quantified by qPCR. ASOs including different LNA modifications of CO-3423 had similar efficacy (i.e, similar increased GRN mRNA expression). GRN mRNA was normalized to the average fold-change of cells treated with two steric non-targeting control ASOs (CO-3772 and CO-1589 (sNTC1)).
The effect of ASO length on GRN gene expression modulation was also investigated. SK-N-AS cells were transfected with increasing concentrations of the longer ASOs and GRN mRNA quantified by qPCR. Increasing the length of CO-3423 increased the potency of the ASO, as shown in Table 4. mRNA was normalized to the average fold change of cells treated with two steric non-targeting control ASOs (CO-3772 and CO-1589 (sNTC1)).
To determine whether variations in the PO/PS internucleotide bond linkages impacted the ability of CO-3423 and CO-3431 to modulate gene expression, several modified ASOs based on these parent ASOs were prepared. SK-N-AS cells were transfected with increasing concentrations of the mixed PO/PS bond ASOs described in Tables 5 and 6, and GRN mRNA quantified by qPCR.
GRN mRNA fold-change after treatment with mixed PO/PS bond versions of CO-3423 is shown in Table 5. mRNA was normalized to the average fold change of cells treated with steric nontargeting controls (CO-3772, CO-1589 (sNTC1), and CO-1929 (sNTC3)).
GRN mRNA fold-change after treatment with mixed PO/PS bond versions of CO-3431 is shown in Table 6. mRNA was normalized as described above.
To further assess the effect of additional modifications on the ability of CO-3423 parent ASO to modulate GRN gene expression, additional LNA tiling and PO bond modifications were incorporated to CO-3423. SK-N-AS cells were transfected with increasing concentrations of the modified ASOs and GRN mRNA quantified by qPCR. CO-3423 was used for comparison. GRN mRNA was normalized to the average fold-change of cells treated with a steric non-targeting control ASO, CO-1589 (sNTC1).
To further assess the effect of modifications on the ability of CO-3463 parent ASO to modulate GRN gene expression, ASOs based on this ASOS incorporating additional LNA modifications were prepared and compared to […]. SK-N-AS cells were transfected with increasing concentrations of the ASOs and GRN mRNA quantified by qPCR. GRN mRNA was normalized to the average fold-change of cells treated with a steric non-targeting control ASO, CO-1589 (sNTC1).
68 additional ASOs were designed to target intergenic enhancers (eRNA). 48 hours post-transfection, the cells were collected for GRN mRNA analysis using qPCR. CO-1589, a steric nontargeting control ASO, was used as a control. GRN mRNA was normalized to cells treated with CO-1589.
The best hits from these ASOs were tested in a dose escalation study. Cells were incubated for 48 hours. Subsequently, the cells were collected for mRNA quantification via RT-qPCR. […]
(Real-time PCR tracks product formation cycle by cycle.)

Where [1] appears, read: Table 9, 48 hours post-transfection, normalized to CO-1589.
Where [2] appears, read: Table 12, normalized to CO-1589.
[3] abbreviates: Table 8, normalized to CO-1589 (sNTC1).
[4] abbreviates: Table 11, 48 hours, normalized to CO-1589.
The mark [5] stands for this setting: Table 13, normalized to CO-1589.

Oligonucleotides are written 5' to 3', each unit as a sugar letter and its base; * is a phosphorothioate linkage, no mark a phosphodiester; rarer units and linkages stand in square brackets, end groups in braces. Plain capitals give the bases only. e = 2'-O-(2-methoxyethyl) (MOE); l = locked nucleic acid (LNA); [5mC] = 5-methylcytosine; d = 2'-deoxy (DNA)

For “CO-4604: ASO designed to target intergenic enhancers (eRNA) (antisense eT*e[5mC]*eT*e[5mC]*e[5mC]*eG*eA*eT*e[5mC]*e[5mC]*e[5mC]*eG*e[5mC]*eT*eT*eG*eT*e[5mC]*eA*eG)”, under setting [1], the “hGRN mRNA FC” value turned out to be 1.2 FC.
“CO-4625: ASO designed to target intergenic enhancers (eRNA) (antisense eT*e[5mC]*eT*eT*eG*eT*eT*eG*eT*eT*eG*eG*eA*eA*eA*eT*eT*e[5mC]*e[5mC]*e[5mC])”: the “hGRN mRNA FC” value under setting [1] was found to be 1.1 FC.
Take “CO-6518: ASO based on parent ASO CO-3462 (antisense eT*eA*eG*eGeAeGeAeAeTe[5mC]eGe[5mC]eTeTeTeGeGeG*eA*eG)”: under setting [2], the “30 nM FC (GRN mRNA)” value stood at 1.2 FC, the “60 nM FC (GRN mRNA)” value is listed as 1.3 FC and the “120 nM FC (GRN mRNA)” value worked out at 0.9 FC.
As for “CO-4592: ASO designed to target intergenic enhancers (eRNA) (antisense eG*eG*eT*e[5mC]*eA*e[5mC]*eA*eG*eA*eT*eT*eG*e[5mC]*eA*e[5mC]*eT*e[5mC]*eT*e[5mC]*e[5mC])”, the “hGRN mRNA FC” value under setting [1] was 1.1 FC.
Turning to “CO-5288: ASO based on CO-3463 incorporating additional LNA modifications (antisense lG*lG*eA*lT*lA*eG*lG*eA*lT*eA*lG*eG*lA*eG*l[5mC]*eG*lA*eG*l[5mC]*l[5mC])”, the “GRN mRNA upregulation as compared to control ASO CO-1589” value (Table 8 series) amounted to 2 fold. For the same substance, the “7.5 nM FC (GRN mRNA)” value (Table 8, 7.5 nM, normalized to CO-1589 (sNTC1)) came to 1.3 FC. For the same substance, under “Table 8, 13 nM, normalized to CO-1589 (sNTC1)”, the “13 nM FC (GRN mRNA)” value is 1.5 FC. Under setting [3], the “30 nM FC (GRN mRNA)” value is listed as 1.5 FC, the “60 nM FC (GRN mRNA)” value is reported as 1.9 FC and the “120 nM FC (GRN mRNA)” value is recorded as 1.9 FC. For the same substance, the “150 nM FC (GRN mRNA)” value (Table 8, 150 nM, normalized to CO-1589 (sNTC1)) is on record as 2.1 FC.
On to “CO-4599: ASO designed to target intergenic enhancers (eRNA) (antisense eG*eG*e[5mC]*e[5mC]*eA*eA*e[5mC]*eT*eA*eT*e[5mC]*eA*eG*e[5mC]*eT*eT*eT*e[5mC]*e[5mC]*e[5mC])”, for which the “hGRN mRNA FC” value under setting [1] worked out at 1.0 FC.
With “CO-6433: ASO designed to target an intragenic enhancer RNA (eRNA) (eG*e[5mC]*eA*e[5mC]*eT*eG*e[5mC]*eT*eG*e[5mC]*e[5mC]*e[5mC]*e[5mC]*e[5mC]*eA*eA*eG*eA*e[5mC]*eA)”, under setting [4], the “hGRN mRNA FC” value is recorded as 0.9 FC.
Regarding “CO-6409: ASO based on parent ASO CO-3462 (antisense eT*eA*eGeG*eA*eGeA*eA*eTe[5mC]*eG*e[5mC]eT*eT*eTeG*eG*eGeA*eG)”, under setting [2], the “30 nM FC (GRN mRNA)” value is 1.1 FC, the “60 nM FC (GRN mRNA)” value was 1.1 FC and the “120 nM FC (GRN mRNA)” value came out at 1.5 FC.
For “CO-6403: ASO based on parent ASO CO-3462 (antisense eG*eG*eT*eA*eG*eG*eA*dG*dA*dA*dT*d[5mC]*dG*d[5mC]*dT*dT*dT*eG*eG*eG*eA*eG*e[5mC]*eA)”, under setting [2], the “30 nM FC (GRN mRNA)” value was 1.6 FC, the “60 nM FC (GRN mRNA)” value is 2.2 FC and the “120 nM FC (GRN mRNA)” value is given as 2.4 FC.
Turning to “CO-4639: ASO designed to target intergenic enhancers (eRNA) (antisense eG*eA*eA*eA*eT*eT*eT*eA*eT*eG*e[5mC]*eG*eG*e[5mC]*e[5mC]*eA*e[5mC]*eT*eG*eT)”, the “hGRN mRNA FC” value under setting [1] came to 1.1 FC.
As for “CO-6399: ASO based on parent ASO CO-3462 (antisense eG*eT*eA*eG*eG*eA*dG*dA*dA*dT*d[5mC]*dG*d[5mC]*dT*dT*dT*eG*eG*eG*eA*eG*e[5mC])”, under setting [2], the “30 nM FC (GRN mRNA)” value is reported as 1.3 FC, the “60 nM FC (GRN mRNA)” value is reported as 1.6 FC and the “120 nM FC (GRN mRNA)” value amounted to 1.9 FC.
For “CO-6382: ASO based on parent ASO CO-3462 (antisense e[5mC]*eT*eA*eT*eG*eA*eT*e[5mC]*eA*eG*e[5mC]*eT*eT*eG*eG*eG*e[5mC]*eG*eA*e[5mC])”, under setting [2], the “30 nM FC (GRN mRNA)” value was 0.8 FC, the “60 nM FC (GRN mRNA)” value is given as 0.8 FC and the “120 nM FC (GRN mRNA)” value was 0.9 FC.
With “CO-6407: ASO based on parent ASO CO-3462 (antisense TAGGAGAATCGCTTTGGGAG; 2'-MOE, 5-methylC, mixed PO/PS; listed as RNA; modified_base 1..3: mod_base = OTHER; note = Phosphorothioate linkage; modified_base 6..15: mod_base = OTHER; modified_base 1..9: mod_base = OTHER; modified_base 18..20: mod_bas)”, under setting [2], the “30 nM FC (GRN mRNA)” value is listed as 1.1 FC, the “60 nM FC (GRN mRNA)” value is given as 1.2 FC and the “120 nM FC (GRN mRNA)” value amounted to 1.6 FC.
Regarding “CO-6411: ASO based on parent ASO CO-3462 (antisense eT*eA*eGeGeA*eG*eA*eA*eT*e[5mC]*eG*e[5mC]*eT*eT*eT*eGeGeG*eA*eG)”, under setting [2], the “30 nM FC (GRN mRNA)” value was 1.1 FC, the “60 nM FC (GRN mRNA)” value stood at 1.4 FC and the “120 nM FC (GRN mRNA)” value amounted to 1.8 FC.
On to “CO-4626: ASO designed to target intergenic enhancers (eRNA) (antisense e[5mC]*e[5mC]*eT*e[5mC]*eA*eT*eG*eT*eA*eT*eG*eT*eA*eA*eT*eT*eG*e[5mC]*e[5mC]*e[5mC])”, for which the “hGRN mRNA FC” value under setting [1] turned out to be 1.0 FC.
Consider “CO-6448: ASO designed to target an intragenic enhancer RNA (eRNA) (eT*e[5mC]*e[5mC]*e[5mC]*eG*eG*eT*eG*e[5mC]*e[5mC]*e[5mC]*eT*eG*eA*eT*eG*eG*eT*eT*e[5mC])”, for which the “hGRN mRNA FC” value under setting [4] amounted to 1.1 FC.
“CO-6420: ASO based on parent ASOs CO-4363 and CO-4364 (eG*eG*lA*e[5mC]*eT*lT*eG*eG*lG*eA*eG*lT*eG*eG*lT*eG*eA*l[5mC]*eT*eG*lA*eA*e[5mC])”: under setting [5], the “30 nM FC (GRN mRNA)” value amounted to 1.4 FC, the “60 nM FC (GRN mRNA)” value came out at 2.7 FC and the “120 nM FC (GRN mRNA)” value is listed as 2.2 FC.
Consider “CO-6514: ASO based on parent ASO CO-3462 (antisense eT*eA*eGeGeAeGeAeAeTe[5mC]eG*e[5mC]*eT*eT*eT*eG*eG*eG*eA*eG)”, for which, under setting [2], the “30 nM FC (GRN mRNA)” value was 1.4 FC, the “60 nM FC (GRN mRNA)” value was determined as 1.9 FC and the “120 nM FC (GRN mRNA)” value is reported as 1.8 FC.
Turning to “CO-4628: ASO designed to target intergenic enhancers (eRNA) (antisense eT*e[5mC]*e[5mC]*eA*eT*eA*e[5mC]*eA*eA*e[5mC]*eT*eG*e[5mC]*eA*eG*eA*eG*eT*eG*eG)”, the “hGRN mRNA FC” value under setting [1] is given as 1.0 FC.
The same measure, in the same setting: as for “CO-4605: ASO designed to target intergenic enhancers (eRNA) (antisense e[5mC]*eG*eG*eG*eA*eG*eA*e[5mC]*eA*eG*eG*eA*eA*eG*eG*e[5mC]*eT*eT*eA*eA)”, the figure is 1.2 FC.

(Values after patent US20250243488A1, “METHODS OF MODULATING PROGRANULIN EXPRESSION USING ANTISENSE OLIGONUCLEOTIDES TARGETING REGULATORY RNAS” (Camp4 Therapeutics Corporation, priority 2022, published 2025).)
